Assay results from patent US10085449B2, “N-[1-((6-chloropyridin-3-yl)methyl)pyridin-2(1H)-ylidene]-2,2,2- trifluoroacetamide for control of agricultural/horticultural pests” (priority 2010, dated 2018).
Like-named read-outs stand apart in the source and are kept apart here.

What was measured:
Format in all cases: in vivo
small brown planthopper = assay: whole plant or invertebrate; details: Laodelphax striatellus, in Triticum aestivum, 96 h
Procedure, shortened: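 Roots of 48-h wheat seedlings took up compound in 10% acetone/water for 72 h, then ten second-instar larvae were released per seedling and held at 25 °C (16 h light/8 h dark). Mortality counted four days after release; two replications.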

rice leaf bug = assay: whole plant or invertebrate; details: foliar, 72 h
Procedure, shortened: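 Four-day wheat seedling shoots dipped 30 s in compound solution (50% acetone/water, 0.05% Tween 20), air-dried, then infested with two second-instar larvae per glass cylinder at 25 °C, 16 h light/8 h dark. Mortality (%) counted after 3 days.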

western flower thrips = assay: whole plant or invertebrate; details: Frankliniella occidentalis, foliar
Procedure, shortened: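 Bean leaf discs sprayed with compound in 50% acetone/water with 0.05% Tween 20, air dried, then infested with first-instar larvae. Held at 25° C under 16 h light/8 h dark; live and dead counted after 3 days to give % mortality, two replicates.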

[1] = system: brown rice planthopper having a low susceptibility to insecticides; set-up: key to Brown rice planthopper, Kumamoto low susceptibility (rice soil drenching), effect: mortality %, dead/(live+dead) ×100; details: for Mortality: all the lines (susceptible line, field-collected lines I and II); for Insecticidal effects (mortality), brown rice planthopper second-instar larvae: soil drenching treatment
[2] = system: small brown planthopper having a low susceptibility to insecticides; assay: Small brown planthopper control test, pests having a low susceptibility to insecticides (soil drenching); details: both lines (susceptible and field-collected)
Protocol: (§1) Rice seedlings grown in pots were subjected to soil drenching treatment with solutions of the inventive compounds at a predetermined concentration prepared to 10% acetone/water. Three days after treatment, ten second-instar small brown planthopper larvae having a low susceptibility to insecticides were released onto each seedling. The seedlings and insects were then held in an incubation chamber at 25° C. (16-hour period of light, 8-hour dark period). Three days after released, the numbers of live and dead insects were counted, and the mortality was calculated from the following formula. The test was carried out as two replications. Mortality (%)=[number of dead insects/(number of live insects+number of dead insects)]×100
The pests used in this test were insects that had been raised indoors for successive generations over a long period of time (susceptible line), and insects that had been raised indoors for successive generations after being collected in 2006 within Kumamoto Prefecture (field-collected line).

rice water weevil = assay: Rice water weevil control test (soil drenching treatment); details: 0.1 mg/seedling soil drenching of rice seedlings, adults, 3 days after release
Protocol: as §1, with “acetone/water. Two” for “acetone/water. Three”, “treatment, five adult rice water weevils” for “treatment, ten second-instar small brown planthopper larvae having a low susceptibility to insecticides”

house fly = assay: House fly control test (local application); set-up: dose or concentration left out as unconfirmed
Protocol: The inventive compounds prepared to a predetermined concentration in acetone were applied in an amount of 1 μL (per insect) to the backs of adult female flies raised indoors. Following chemical treatment, the flies were transferred to plastic cups, with five flies being placed in each cup, and held in an incubation chamber at 25° C. (16-hour period of light, 8-hour dark period). Twenty-four hours after treatment, the state of knockdown among the flies was observed, and the knockdown rate was calculated from the following formula. The test was carried out as two replications. Knockdown rate (%)=[number of knocked down insects/(number of live insects+number of knocked down insects)]×100

green peach aphid = assay: Green peach aphid control test (foliar application); details: Myzus persicae, in Brassica oleracea, 72 h
From the text: Leaf discs 2.8 cm in diameter were cut from cabbage plants grown in pots, and four adult aphids were released onto each disc. One day later, the adults were removed, and the number of first-instar larvae that had been deposited on each leaf disc was adjusted to 10. Next, the leaf discs parasitized by these first instar larvae were sprayed with solutions of the inventive compounds at a predetermined concentration prepared to 50% acetone/water (containing 0.05% Tween 20). The treated leaf discs were air dried, following which covers were placed over the Petri dishes and the leaf discs and larvae were held in an incubation chamber at 25° C. (16-hour period of light, 8-hour dark period). Three days after released, the numbers of live and dead insects were counted, and the mortality was calculated from the following formula. This was a two-replication test. Mortality (%)=[number of dead insects/(number of live insects+number of dead insects)]×100

[3] = read-out: Insecticidal effects (mortality), small brown planthopper second-instar larvae
[4] = read-out: Insecticidal effects (mortality), western flower thrips first-instar larvae
[5] = 0.005 mg/seedling soil drenching

`O=C(N=c1ccccn1Cc1ccc(Cl)nc1)C(F)(F)F` [Compound 212, N-[1-((6-chloropyridin-3-yl)methyl)pyridin-2(1H)-ylidene]-2,2,2-trifluoroacetamide] was tested, and the mortality at 20 µg/seedling (small brown planthopper) was no less than 80%, the mortality at 0.0078 mg/seedling (small brown planthopper; [3]) was 50% and the mortality at 0.016 mg/seedling (small brown planthopper; [3]) was 50%. For the same compound, the mortality at 0.031 mg/seedling (small brown planthopper; [3]) was 100%, the mortality at 0.063 mg/seedling (small brown planthopper; [3]) was 100% and the mortality at 0.125 mg/seedling (small brown planthopper; [3]) was 100%. The mortality at 0.25 mg/seedling (small brown planthopper; [3]) was 100%, the mortality at 0.5 mg/seedling (small brown planthopper; [3]) was 100% and the mortality at 2 mg/seedling (small brown planthopper; [3]) was 100%. It also gave a mortality at 20 mg/seedling (small brown planthopper; [3]) of 100%, a mortality at 50 ppm (rice leaf bug) of no less than 80% and a mortality at 100 ppm (western flower thrips; 72 h) of no less than 80%. For the same compound, the mortality at 500 ppm (western flower thrips; 72 h) was no less than 80%, the mortality at 20 ppm (western flower thrips; [4]) was 65% and the mortality at 100 ppm (western flower thrips; [4]) was 100%. For the same compound, the mortality at 500 ppm (western flower thrips; [4]) was 100%, the Mortality [1, 5] was “at least 90%” and the Mortality ([1]; 0.05 mg/seedling soil drenching) was 100%. The “Brown rice planthopper, Kumamoto low susceptibility (rice soil drenching), effect” value ([1]; 0.005 mg/pot) was 90, the “Brown rice planthopper, Kumamoto low susceptibility (rice soil drenching), effect” value ([1]; 0.05 mg/pot) was 100 and the “Insecticidal effects (mortality), brown rice planthopper second-instar larvae” value ([1]; 0.02 mg/pot) was 100. For the same compound, the “Insecticidal effects (mortality), brown rice planthopper second-instar larvae” value ([1]; 0.05 mg/pot) was 100, the Mortality [2, 5] was “at least 90%” and the Mortality ([2]; 0.01 mg/seedling soil drenching) was 100%. The Mortality (rice water weevil) was “at least 80%”, the “Insecticidal effects (mortality), adult houseflies” value (house fly) was 100 and the mortality at 100 ppm (green peach aphid) was no less than 80%.
